In ChEMBL document CHEMBL5500389, “Discovery of the Selective and Orally Available Galectin-1 Inhibitor GB1908 as a Potential Treatment for Lung Cancer” (J Med Chem, 2024):
pKd: −log10 of the molar value.

Tests used:
[1] = Stability in human hepatocytes assessed as hepatic intrinsic clearance at 2 uM measured per million cells for 15 to 120 mins by LC-MS/MS analysis; format: ADME, cell-based, Hepatocyte; conditions: time 15-120 min, read-out: CLH
[2] = Apparent permeability across basal to apical side in human Caco-2 cells at 10 uM incubated for 90 mins by LC-MS/MS analysis
physchem = conditions: octanol/potassium phosphate buffer, pH 7.4
[3] = Efflux ratio of apparent permeability across apical to basal side over basal to apical side in human Caco-2 cells at 10 uM incubated for 90 mins by LC-MS/MS analysis
[4] = Stability in mouse hepatocytes assessed as hepatic intrinsic clearance at 2 uM measured per million cells for 15 to 120 mins by LC-MS/MS analysis; format: ADME, cell-based, Hepatocyte; conditions: time 15-120 min, read-out: CLH
[5] = Apparent permeability across apical to basal side in human Caco-2 cells at 10 uM incubated for 90 mins by LC-MS/MS analysis
Galectin-1 [6] = target: Galectin-1 (Mus musculus, UniProt P16045); experiment: Binding affinity to mouse galectin-1 assessed as dissociation constant by fluorescein probe based fluorescence polarization assay
Chain of Galectin-1 (Mus musculus, UniProt P16045) (P16045 whole entry): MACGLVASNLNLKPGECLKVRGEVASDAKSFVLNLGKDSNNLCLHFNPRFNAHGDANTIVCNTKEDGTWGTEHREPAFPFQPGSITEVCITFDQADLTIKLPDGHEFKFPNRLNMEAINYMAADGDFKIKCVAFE

Galectin-1 [7] = target: Galectin-1 (Homo sapiens, UniProt P09382); experiment: Binding affinity to human galectin-1 assessed as dissociation constant by fluorescein probe based fluorescence polarization assay
Chain of Galectin-1 (Homo sapiens, UniProt P09382) (P09382 whole entry): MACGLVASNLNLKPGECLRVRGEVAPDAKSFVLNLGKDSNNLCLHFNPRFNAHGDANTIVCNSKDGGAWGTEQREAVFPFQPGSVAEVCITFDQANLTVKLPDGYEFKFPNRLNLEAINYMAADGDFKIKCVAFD

| Compound | hepatocyte CLint at 2 µM [1] [µL/min/1e6 cells] | Papp B→A at 1.5 h, 10 µM [2] [nm/s] | logD at 1 h (physchem) | efflux ratio at 1.5 h, 10 µM [3] | hepatocyte CLint at 2 µM [4] [µL/min/1e6 cells] | Papp A→B at 1.5 h, 10 µM [5] [nm/s] | pKd (Galectin-1 [6]) | pKd (Galectin-1 [7]) |
| --- | --- | --- | --- | --- | --- | --- | --- | --- |
| CO[C@@H]1[C@@H](n2cc(-c3nccs3)nn2)[C@@H](O)[C@@H](CO)O[C@@H]1Sc1cc(Cl)c(F)c(Cl)c1 | 4.4 | 280 | 3.7 | 1.4 | < 1.5 | 200 | 6.80 | 6.84 |
| COc1nc(-c2cn([C@@H]3[C@@H](O)[C@@H](Sc4cc(Cl)c(F)c(Cl)c4)O[C@H](CO)[C@@H]3O)nn2)cs1 |  | 610 |  | 5 |  | 120 |  | 5.80 |
| CNc1nc(-c2cn([C@@H]3[C@@H](O)[C@@H](Sc4cc(Cl)c(F)c(Cl)c4)O[C@H](CO)[C@@H]3O)nn2)cs1 |  | 460 | 2.9 | > 192 |  | < 2.4 |  | 5.87 |

The remaining molecules from weak to strong by pKd (Galectin-1 [7]), led by results:

| hepatocyte CLint at 2 µM [1] [µL/min/1e6 cells] | Papp B→A at 1.5 h, 10 µM [2] [nm/s] | logD at 1 h (physchem) | efflux ratio at 1.5 h, 10 µM [3] | hepatocyte CLint at 2 µM [4] [µL/min/1e6 cells] | Papp A→B at 1.5 h, 10 µM [5] [nm/s] | pKd (Galectin-1 [6]) | pKd (Galectin-1 [7]) | Compound |
| --- | --- | --- | --- | --- | --- | --- | --- | --- |
|  | 350 |  | > 23 |  | < 15 |  | 6.47 | OC[C@H]1O[C@H](Sc2ccc(Cl)c(Cl)c2)[C@H](O)[C@@H](n2cc(-c3csc(O)n3)nn2)[C@H]1O |
| 4.6 | 390 | 3 | 11 | 1.6 | 35 | 7.04 | 7.01 | CO[C@@H]1[C@@H](n2cc(-c3csc(N)n3)nn2)[C@@H](O)[C@@H](CO)O[C@@H]1Sc1cc(Cl)c(F)c(Cl)c1 |
|  | 350 | 2.8 | 117 |  | 3 |  | 7.10 | OC[C@H]1O[C@H](Sc2cc(Cl)c(F)c(Cl)c2)[C@H](O)[C@@H](n2cc(-c3csc(O)n3)nn2)[C@H]1O |
| 2.5 | 570 | 3.3 | 63 | < 1.5 | 9 | 7.37 | 7.47 | CO[C@@H]1[C@@H](n2cc(-c3csc(O)n3)nn2)[C@@H](O)[C@@H](CO)O[C@@H]1Sc1cc(Cl)c(F)c(Cl)c1 |
